Experimental findings from patent US20230116972A1, “CD38 MODULATORS AND METHODS OF USE THEREOF” (Cytokinetics, Inc., priority 2021, published 2023) are described below.

The structures appear in SMILES notation.

One assay addresses T1, human CD38 (Homo sapiens, UniProt P28907).
T1 sequence (P28907 1-300): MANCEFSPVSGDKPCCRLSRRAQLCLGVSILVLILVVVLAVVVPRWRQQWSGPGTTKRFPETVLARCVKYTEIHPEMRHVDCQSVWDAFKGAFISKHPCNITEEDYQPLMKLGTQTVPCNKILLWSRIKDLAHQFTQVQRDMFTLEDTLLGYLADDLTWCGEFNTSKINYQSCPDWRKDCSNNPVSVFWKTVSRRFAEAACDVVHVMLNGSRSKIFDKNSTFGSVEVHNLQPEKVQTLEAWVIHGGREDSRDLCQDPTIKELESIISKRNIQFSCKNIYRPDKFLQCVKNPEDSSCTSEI
In words: human recombinant CD38 enzyme assay (hydrolysis of NAD+). It counts as biochemical. The note with it: human recombinant CD38, 0.4 nM enzyme, 62.5 μM NAD+; read-out: hCD38 BioChem IC50. An outline of the steps: (§1)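 Residual substrate after a one-hour room-temperature incubation of recombinant CD38 with NAD+ and test compound is measured by an ADH/diaphorase coupled resorufin signal (540 nm excitation, 590 nm emission); reduced NAD+ consumption reflects inhibition.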

A further assay addresses T2, mouse CD38 (Mus musculus, UniProt P56528).
T2 sequence (P56528 1-304): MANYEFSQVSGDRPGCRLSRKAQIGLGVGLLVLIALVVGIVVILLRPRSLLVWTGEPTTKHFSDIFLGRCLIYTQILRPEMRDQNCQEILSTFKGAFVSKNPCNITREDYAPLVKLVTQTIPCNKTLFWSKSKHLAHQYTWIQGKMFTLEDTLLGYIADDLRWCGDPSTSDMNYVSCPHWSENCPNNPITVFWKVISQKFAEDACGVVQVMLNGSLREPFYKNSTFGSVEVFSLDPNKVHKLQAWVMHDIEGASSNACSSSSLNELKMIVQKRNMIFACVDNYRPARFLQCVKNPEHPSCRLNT
The assay can be described thus: mouse recombinant CD38 enzyme assay (hydrolysis of NAD+). It counts as biochemical. Conditions: read-out: mCD38 BioChem IC50. An outline of the steps: as §1

Assay [1] deals with T3, endogenous CD38 in HL60 cells (Homo sapiens, UniProt P28907).
T3 construct: endogenous in cells; host or cells: HL60 (leukemic cells, treated with all-trans retinoic acid)
T3 sequence (P28907 1-300): T1 sequence (P28907 1-300)
The assay can be described thus: cellular CD38 assay in HL60 cells (cellular NAD levels). It counts as cell-based. Conditions: all-trans retinoic acid, 24 hours, read-out: hCD38 HL60 ATRA NAD Cell Diaphorase IC50. An outline of the steps:
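Endogenous CD38 inhibition is inferred from NAD levels in HL60 cells after 24 h compound exposure at 20000 cells per well. A lytic cycling readout (0.2 U/mL diaphorase, 0.8 U/mL alcohol dehydrogenase, resazurin, FMN, ethanol, 0.2% Triton X-100, Tris/EDTA pH 8.4) ran 60 min at ambient temperature. Resorufin fluorescence was read at 540/590 nm.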

With `CO[C@H]1CC[C@H](NC(=O)c2nc(C3CC3)cc(-n3ccnc3)n2)CC1` [Compound 204, 4-cyclopropyl-6-(1H-imidazol-1-yl)-N-((1r,4r)-4-methoxycyclohexyl)pyrimidine-2-carboxamide], the IC50 is 0.123 µM at human CD38, 0.0088 µM on mouse CD38 and 8.57 µM in assay [1].

Take `Cn1cncc1-c1ccnc(C(=O)N[C@H]2C[C@H](c3ccccc3F)C2)n1` [Compound 240, N-((1r,3r)-3-(2-fluorophenyl)cyclobutyl)-4-(1-methyl-1H-imidazol-5-yl)pyrimidine-2-carboxamide]: the IC50 at human CD38 stood at 0.0279 µM; on mouse CD38, 0.0133 µM; in assay [1], 2.06 µM.

In the case of `COC(=O)N1CC2(CC(NC(=O)c3cccc(-n4ccnc4)n3)C2)C1` [Compound 48, methyl 6-(6-(1H-imidazol-1-yl)picolinamido)-2-azaspiro[3.3]heptane-2-carboxylate], the values for the IC50 (on human CD38; on mouse CD38; in assay [1]) were 0.244 µM, 0.046 µM and 3.76 µM, respectively.

Turning to `O=C(Nc1ccc(C(F)F)nc1)c1ccnc(-n2ccnc2)n1` [Compound 93, N-(6-(difluoromethyl)pyridin-3-yl)-2-(1H-imidazol-1-yl)pyrimidine-4-carboxamide], the IC50 at human CD38 was 0.002 µM; at mouse CD38, 0.005 µM; in assay [1], 0.187 µM.

For the compound `O=C(N[C@H]1CC[C@](O)(c2ccccc2)CC1)c1nccc(-n2ccnc2)n1` [Compound 260, N-((1s,4s)-4-hydroxy-4-phenylcyclohexyl)-4-(1H-imidazol-1-yl)pyrimidine-2-carboxamide], the IC50 on human CD38 worked out at 0.271 µM; at mouse CD38 it was 0.161 µM; in assay [1] it was 10.6 µM.

As for `Cn1cncc1-c1nc(C(=O)N[C@H]2CCc3cc(F)ccc32)cc(C2CCOCC2)n1` [Compound 229, (S)-N-(5-fluoro-2,3-dihydro-1H-inden-1-yl)-2-(1-methyl-1H-imidazol-5-yl)-6-(tetrahydro-2H-pyran-4-yl)pyrimidine-4-carboxamide], the IC50 at human CD38 was 0.0112 µM; at mouse CD38, 0.0025 µM; in assay [1] it was 4 µM.

For `O=C(N[C@H]1CC[C@H](C(F)F)CC1)c1cc(C(F)(F)F)nc(-n2ccnc2)n1` [Compound 138, N-((1r,4r)-4-(difluoromethyl)cyclohexyl)-2-(1H-imidazol-1-yl)-6-(trifluoromethyl)pyrimidine-4-carboxamide], the IC50 on human CD38 came out at 0.073 µM; at mouse CD38, 0.025 µM; in assay [1], 3.01 µM.

Regarding `COc1cc(C(=O)Nc2ccc(C(F)F)nc2)nc(-n2ccnc2)n1` [Compound 127, N-(6-(difluoromethyl)pyridin-3-yl)-2-(1H-imidazol-1-yl)-6-methoxypyrimidine-4-carboxamide], the values for the IC50 (at human CD38; at mouse CD38; in assay [1]) were 0.002 µM, 0.002 µM and 0.335 µM, respectively.

For `COCCOc1cc(-c2cncn2C)nc(C(=O)Nc2ccc(C(F)(F)F)nc2)n1` [Compound 233, 4-(2-methoxyethoxy)-6-(1-methyl-1H-imidazol-5-yl)-N-(6-(trifluoromethyl)pyridin-3-yl)pyrimidine-2-carboxamide], the values for the IC50 (at human CD38; on mouse CD38; in assay [1]) were 0.006 µM, 0.0011 µM and 1.04 µM, respectively.

As for `O=C(NC12CC(O)(C1)C2)c1cccc(-n2ccnc2)n1` [Compound 15, N-(3-hydroxybicyclo[1.1.1]pentan-1-yl)-6-(1H-imidazol-1-yl)picolinamide], the results for the IC50 (at human CD38; on mouse CD38; in assay [1]) were 1.14 µM, 0.748 µM and 9.96 µM, respectively.

As for `COc1ncc(-c2cncn2C)nc1C(=O)Nc1ccc(C(F)(F)F)nc1` [Compound 279, 3-methoxy-6-(1-methyl-1H-imidazol-5-yl)-N-(6-(trifluoromethyl)pyridin-3-yl)pyrazine-2-carboxamide], the values for the IC50 (at human CD38; at mouse CD38; in assay [1]) were 0.0051 µM, 0.0426 µM and 0.865 µM, respectively.

Turning to `CO[C@H]1CC[C@H](NC(=O)c2cc(C(F)(F)F)nc(-n3ccnc3)n2)CC1` [Compound 111, 2-(1H-imidazol-1-yl)-N-((1r,4r)-4-methoxycyclohexyl)-6-(trifluoromethyl)pyrimidine-4-carboxamide], the IC50 on human CD38 was determined as 0.129 µM; on mouse CD38 it was 0.038 µM; in assay [1], 5.49 µM.

Turning to `Cn1cncc1-c1nc(C(=O)N[C@H]2C[C@](O)(c3ccccc3)C2)cc(C2CCOCC2)n1` [Compound 277, N-((1s,3s)-3-hydroxy-3-phenylcyclobutyl)-2-(1-methyl-1H-imidazol-5-yl)-6-(tetrahydro-2H-pyran-4-yl)pyrimidine-4-carboxamide], the IC50 came out at 0.0079 µM at human CD38, 0.0107 µM on mouse CD38 and 2.07 µM in assay [1].

As for `Cn1cncc1-c1nc(C(=O)Nc2ccc(C(F)(F)F)nc2)cc(C2CCOCC2)n1` [Compound 198, 2-(1-methyl-1H-imidazol-5-yl)-6-(tetrahydro-2H-pyran-4-yl)-N-(6-(trifluoromethyl)pyridin-3-yl)pyrimidine-4-carboxamide], the values for the half-maximal inhibitory concentration (IC50) (at human CD38; on mouse CD38; in assay [1]) were 0.0038 µM, 0.001 µM and 1.13 µM, respectively.

As for `Cc1cccc(NC(=O)c2cccc(-n3ccnc3)n2)n1` [Compound 33, 6-(1H-imidazol-1-yl)-N-(6-methylpyridin-2-yl)picolinamide], the results for the IC50 (on human CD38; on mouse CD38; in assay [1]) were 0.313 µM, 0.228 µM and 13.7 µM, respectively.

Consider `COc1cc(C(=O)Nc2ccc(C(F)F)nc2)nc(-n2ccnc2)c1` [Compound 187, N-(6-(difluoromethyl)pyridin-3-yl)-6-(1H-imidazol-1-yl)-4-methoxypicolinamide], for which the IC50 was found to be 0.0031 µM on human CD38, 0.0019 µM at mouse CD38 and 0.253 µM in assay [1].

In the case of `O=C(Nc1ccnc(C(F)F)c1)c1cccc(-n2ccnc2)n1` [Compound 39, N-(2-(difluoromethyl)pyridin-4-yl)-6-(1H-imidazol-1-yl)picolinamide], the IC50 was found to be 0.006 µM on human CD38, 0.004 µM at mouse CD38 and 0.298 µM in assay [1].

As for `Cn1cncc1-c1cncc(C(=O)NC2CC3(C2)CC(F)(F)C3)n1` [Compound 105, N-(6,6-difluorospiro[3.3]heptan-2-yl)-6-(1-methyl-1H-imidazol-5-yl)pyrazine-2-carboxamide], the IC50 on human CD38 came out at 0.08 µM; on mouse CD38, 0.024 µM; in assay [1], 1.67 µM.

Take `Cn1cncc1-c1nccc(C(=O)N[C@H]2CC[C@H](C(F)F)CC2)n1` [Compound 70, N-((1r,4r)-4-(difluoromethyl)cyclohexyl)-2-(1-methyl-1H-imidazol-5-yl)pyrimidine-4-carboxamide]: the IC50 was 0.005 µM on human CD38, 0.001 µM on mouse CD38 and 0.77 µM in assay [1].

For the compound `O=C(N[C@H]1CC[C@H](O)CC1)c1cccc(-n2ccnc2)n1` [Compound 30, N-(4-hydroxycyclohexyl)-6-(1H-imidazol-1-yl)picolinamide], the IC50 on human CD38 is 0.085 µM; at mouse CD38 it was 0.014 µM; in assay [1], 2.83 µM.

For the compound `O=C(N[C@H]1C[C@H](c2ccc(C(F)(F)F)nc2)C1)c1nccc(-n2ccnc2)n1` [Compound 269, 4-(1H-imidazol-1-yl)-N-((1r,3r)-3-(6-(trifluoromethyl)pyridin-3-yl)cyclobutyl)pyrimidine-2-carboxamide], the IC50 came out at 0.199 µM at human CD38, 0.175 µM on mouse CD38 and 3.95 µM in assay [1].

For the compound `Cn1cncc1-c1cc(C2CC2)nc(C(=O)Nc2ccc(C(F)F)nc2)n1` [Compound 206, 4-cyclopropyl-N-(6-(difluoromethyl)pyridin-3-yl)-6-(1-methyl-1H-imidazol-5-yl)pyrimidine-2-carboxamide], the IC50 at human CD38 came to 0.0039 µM; on mouse CD38 it was 0.0017 µM; in assay [1] it was 0.576 µM.

Consider `Cn1cncc1-c1nc(C(=O)N[C@H]2CC[C@H](C(F)F)CC2)cc(C(F)(F)F)n1` [Compound 152, N-((1r,4r)-4-(difluoromethyl)cyclohexyl)-2-(1-methyl-1H-imidazol-5-yl)-6-(trifluoromethyl)pyrimidine-4-carboxamide], for which the IC50 amounted to 0.013 µM on human CD38, 0.001 µM at mouse CD38 and 2.35 µM in assay [1].

In the case of `Cn1cncc1-c1nc(C(=O)N[C@H]2C[C@H](Oc3ccccc3)C2)cc(C2CCOCC2)n1` [Compound 291, 2-(1-methyl-1H-imidazol-5-yl)-N-((1r,3r)-3-phenoxycyclobutyl)-6-(tetrahydro-2H-pyran-4-yl)pyrimidine-4-carboxamide], the IC50 was 0.0041 µM on human CD38, 0.0034 µM on mouse CD38 and 2.62 µM in assay [1].
